Measurements reported in patent publication US11486880B2, “Method of measuring harshness of a surfactant” (Conopeo, Inc., priority 2018, dated 2022).

System: Zein protein
Experiment: Harshness of surfactant by dye release from solid Zein protein-Coomassie Blue R dye complex (CIE L*a*b colour change)
Set-up: species or system corn
Details: 10 wt % surfactant dilution; disc of protein-dye complex soaked 15 minutes; decrease in b* between first and second colour measurement; lower b = harsher; three replicates
Procedure: Zein powder (10 wt %) and Coomassie Blue R dye (0.1%) were added to a glass jar, and made up to 100 wt % with 90:10 aqueous ethanol (90 ethanol: 10 water). The mixture was left to disperse with stirring for 12 hours to produce protein-dye complex solution.
2 g of the protein-dye complex solution was added to four petri dishes and dried overnight under ambient conditions. The dried discs of protein-dye complex were then removed from the petri dishes and stored until required.
Dilutions (10 wt %) of four surfactants were prepared and a first colour measurement of each dilution was taken using CIEL*a*b on a Konica Minolta spectrometer.
A disc of protein-dye complex was added to each surfactant dilution, and soaked for 15 minutes. A second colour measurement was obtained of the resulting solutions. The decrease in b* value between the first and second colour measurement indicated the increase in blue colour. The lower the b value the ‘bluer’ the sample and the harsher the formulation. Three samples from each surfactant solution were measured as replicates.

SMILES | Average Δb*
CCCCCCCCCCO[C@@H]1O[C@H](CO)[C@@H](O)[C@H](O)[C@H]1O [Decyl Glucoside] | −11.2625
CCCCCCCCCCCCOS(=O)(=O)[O-].[Na+] [SDS] | −49.465
